Assay results published in ChEMBL document CHEMBL1145190, “CoMFA and CoMSIA analyses of Pneumocystis carinii dihydrofolate reductase, Toxoplasma gondii dihydrofolate reductase, and rat liver dihydrofolate reductase” (J Med Chem, 2005).
“And” between values parts separate entries of the source, which are not always exact repeats. Equal values may be shown once.

Experiments:
[1] = molecular target: T1, Dihydrofolate reductase (Pneumocystis carinii, UniProt P16184); assay: (§1) Inhibition of Pneumocystis carinii dihydrofolate reductase
T1 sequence (P16184 whole entry): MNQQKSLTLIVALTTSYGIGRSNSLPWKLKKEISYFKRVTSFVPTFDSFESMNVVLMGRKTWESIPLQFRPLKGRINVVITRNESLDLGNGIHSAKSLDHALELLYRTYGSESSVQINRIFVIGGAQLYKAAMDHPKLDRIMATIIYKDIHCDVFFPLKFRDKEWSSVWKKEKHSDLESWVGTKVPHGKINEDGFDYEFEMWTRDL

[2] = molecular target: T1, Dihydrofolate reductase; assay: as §1; remark: listed apart in the source
[3] = molecular target: T2, Bifunctional dihydrofolate reductase-thymidylate synthase (Toxoplasma gondii, UniProt Q07422); assay: (§2) Inhibition of Toxoplasma gondii dihydrofolate reductase
T2 sequence (Q07422 whole entry): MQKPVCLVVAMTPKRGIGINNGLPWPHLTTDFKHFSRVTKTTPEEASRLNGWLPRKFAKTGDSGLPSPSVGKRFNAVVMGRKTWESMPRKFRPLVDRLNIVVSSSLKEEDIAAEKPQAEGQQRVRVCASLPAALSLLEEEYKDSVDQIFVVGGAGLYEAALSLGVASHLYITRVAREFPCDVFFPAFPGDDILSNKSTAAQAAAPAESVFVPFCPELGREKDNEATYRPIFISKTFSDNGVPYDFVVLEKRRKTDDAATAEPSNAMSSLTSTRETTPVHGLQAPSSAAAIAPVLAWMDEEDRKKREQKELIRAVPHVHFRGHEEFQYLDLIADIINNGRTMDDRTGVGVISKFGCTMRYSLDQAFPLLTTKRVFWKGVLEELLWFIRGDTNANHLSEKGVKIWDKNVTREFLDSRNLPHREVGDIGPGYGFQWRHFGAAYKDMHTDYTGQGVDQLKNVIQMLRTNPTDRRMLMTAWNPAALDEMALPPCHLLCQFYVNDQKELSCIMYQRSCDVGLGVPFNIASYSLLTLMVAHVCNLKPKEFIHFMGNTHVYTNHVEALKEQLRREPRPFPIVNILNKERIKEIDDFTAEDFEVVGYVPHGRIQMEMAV

[4] = molecular target: T2, Bifunctional dihydrofolate reductase-thymidylate synthase; assay: as §2; remark: listed apart in the source
[5] = molecular target: T3, Dihydrofolate reductase (Rattus norvegicus, UniProt Q920D2); assay: (§3) Inhibition of rat liver dihydrofolate reductase
T3 sequence (Q920D2 whole entry): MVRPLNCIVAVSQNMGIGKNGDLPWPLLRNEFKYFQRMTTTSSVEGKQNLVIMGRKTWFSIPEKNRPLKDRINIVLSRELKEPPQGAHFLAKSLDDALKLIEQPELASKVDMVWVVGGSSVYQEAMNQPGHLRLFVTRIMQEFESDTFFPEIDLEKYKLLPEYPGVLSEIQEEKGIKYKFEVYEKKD

[6] = molecular target: T3, Dihydrofolate reductase; assay: as §3; remark: listed apart in the source

Row | SMILES | IC50 [1] [nM] | IC50 [2] [nM] | IC50 [5] [nM] | IC50 [6] [nM] | IC50 [3] | IC50 [4]
1 | Nc1nc(N)c2nc(CNc3cc(Cl)c(Cl)c(Cl)c3)ccc2n1 | 661 | 660 |  |  |  | 
2 | COc1ccc(OC)c(N(C)Cc2ccc3nc(N)nc(N)c3n2)c1 | 210 | 210 |  |  | 250 nM | 
3 | CN(Cc1ccc2nc(N)nc(N)c2n1)c1ccccc1Cl | 210 | 210 |  |  |  | 
4 | COc1ccc(NCc2ccc3nc(N)nc(N)c3n2)cc1 | 849 | 850 |  |  |  | 
5 | CN(CC1CCc2nc(N)nc(N)c2C1)c1cccc2ccccc12 (stereo unspecified) |  |  |  | 160 |  | 
6 | CN(Cc1ccc2nc(N)nc(N)c2n1)c1cccc2ccccc12 | 40 | 40 |  |  |  | 
7 | Nc1nc(N)c2nc(CNc3cc(Cl)ccc3Cl)ccc2n1 | 1600 | 1600 |  |  |  | 
8 | Nc1nc(N)c2nc(CNc3ccc(Cl)cc3Cl)ccc2n1 | 730 | 730 |  |  |  | 
9 | CN(Cc1ccc2nc(N)nc(N)c2n1)c1ccc(Cl)c(Cl)c1 | 38 | 38 |  |  |  | 
10 | COc1cc(-n2ccc3c4c(N)nc(N)nc4nc(=O)c-3c2)cc(OC)c1OC | 4280 | 4280 | 1120 | 1120 | 240 nM and 52 nM | 240 nM and 52 nM
11 | CN(Cc1ccc2nc(N)nc(N)c2n1)c1ccc2ccccc2c1 | 52 | 52 |  |  |  | 
12 | Nc1nc(N)c2nc(CSc3cccc4ccccc34)ccc2n1 | 470 | 470 |  | 252 |  | 
13 | COc1cc(N(C)Cc2ccc3nc(N)nc(N)c3n2)cc(OC)c1OC | 120 | 120 | 52 | 52 | 44 nM | 44 nM
14 | CN(Cc1ccc2nc(N)nc(N)c2n1)c1c(Cl)cccc1Cl | 170 | 170 |  |  |  | 
15 | CN(Cc1ccc2nc(N)nc(N)c2n1)c1ccc(Cl)cc1Cl | 500 | 500 |  |  |  | 
16 | COc1cc(CCC2CNc3nc(N)nc(N)c3C2)cc(OC)c1OC (stereo unspecified) | 7710 | 7700 | 2100 | 2100 | 1100 nM | 1100 nM
17 | Nc1nc(N)c2nc(CNc3cccc(Cl)c3)ccc2n1 | 2000 | 2000 |  |  |  | 
18 | CN(Cc1ccc2nc(N)nc(N)c2n1)c1ccccc1 | 290 | 290 |  |  | 0.84 nM | 
19 | Cc1c(C)c(-n2cccc2)c(C)c(C)c1NNCc1cnc2nc(N)nc(N)c2c1C | 620 | 620 | 170 | 170 | 75 nM | 75 nM

Row | SMILES | IC50 [1] [nM] | IC50 [2] [nM] | IC50 [5] [nM] | IC50 [6] [nM] | IC50 [3] | IC50 [4]
20 | COc1cc(C(C)Nc2cnc3nc(N)nc(N)c3c2)cc(OC)c1OC (stereo unspecified) |  |  |  |  |  | 182 nM
21 | COc1ccc(N(C)Cc2ccc3nc(N)nc(N)c3n2)cc1 | 250 | 250 |  |  |  | 
22 | COc1cc(CN(C)c2ccc3nc(N)nc(N)c3c2)cc(OC)c1 | 23.3 |  |  |  |  | 
23 | CN(Cc1ccc2nc(N)nc(N)c2n1)c1cc(Cl)c(Cl)c(Cl)c1 | 250 | 250 |  |  |  | 
24 | Nc1nc(N)c2cc(NCc3cccc4ccccc34)ccc2n1 | 720 | 720 | 190 | 190 | 99 nM | 99 nM
25 | COc1cc(N(C)CC2CCc3nc(N)nc(N)c3C2)cc(OC)c1OC (stereo unspecified) |  |  | 38 |  |  | 
26 | Nc1nc(N)c2nc(CNc3ccccc3)ccc2n1 | 1700 | 1700 |  |  |  | 
27 | CN(Cc1ccc2nc(N)nc(N)c2n1)c1cc(Cl)ccc1Cl | 150 | 150 |  |  |  | 
28 | Nc1nc(N)c2nc(CSc3ccccc3)ccc2n1 | 2000 | 2000 |  |  |  | 
29 | COc1cc(CN(C)c2cnc3nc(N)nc(N)c3c2)cc(OC)c1 |  |  |  |  | 31 nM | 31 nM
30 | Nc1nc(N)c2nc(CNc3ccc4ccccc4c3)ccc2n1 | 1600 | 1600 |  |  |  | 
31 | COc1ccc(-c2ccccc2)cc1NNCc1cnc2nc(N)nc(N)c2c1C | 64 | 64 | 440 | 440 | 68 nM | 68.1 nM
32 | Nc1nc(N)c2c(n1)CCC(CNc1cccc(Cl)c1)C2 (stereo unspecified) | 940 | 940 | 128 | 128 | 78 nM | 78 nM
33 | Nc1nc(N)c2nc(CSc3ccc4ccccc4c3)ccc2n1 | 380 | 380 |  |  |  | 
34 | Nc1nc(N)c2nc(CNc3ccc(Cl)c(Cl)c3)ccc2n1 | 410 | 410 |  |  |  | 
35 | CN(Cc1cccc2ccccc12)c1ccc2nc(N)nc(N)c2c1 | 17 | 17 | 17 | 17 |  | 21 nM
36 | Nc1nc(N)c2nc(CNc3c(Cl)cccc3Cl)ccc2n1 | 1000 | 1000 |  |  |  | 
37 | COc1ccc(N(C)Cc2ccc3nc(N)nc(N)c3n2)c(OC)c1 | 160 | 160 |  |  |  | 

The next lines start with results.

Row | IC50 [1] [nM] | IC50 [2] [nM] | IC50 [5] [nM] | IC50 [6] [nM] | SMILES | IC50 [3] | IC50 [4]
38 | 1700 | 1700 |  |  | COc1cccc(NCc2ccc3nc(N)nc(N)c3n2)c1 |  | 
39 | 530 | 530 |  |  | Nc1nc(N)c2nc(CNc3ccccc3Cl)ccc2n1 |  | 
40 | 80 | 80 | 170 | 170 | Cc1c(CN(C)c2ccc(Cl)cc2)cnc2nc(N)nc(N)c12 | 1.7 nM | 1.7 nM
41 | 91 | 91 |  | 270 | COc1ccc(N(C)Cc2ccc3nc(N)nc(N)c3n2)cc1OC |  | 
42 | 5500 | 5500 |  |  | COc1ccc(NCc2ccc3nc(N)nc(N)c3n2)c(OC)c1 |  | 
43 |  |  | 1200 |  | COc1cc(OC)c(CNc2cnc3nc(N)nc(N)c3c2)c(OC)c1 |  | 
44 | 2000 | 2000 |  |  | COc1cc(NCc2ccc3nc(N)nc(N)c3n2)cc(OC)c1OC |  | 
45 | 900 | 900 |  |  | COc1ccc(NCc2ccc3nc(N)nc(N)c3n2)cc1OC |  | 
46 | 2700 | 2700 |  |  | COc1ccccc1NCc1ccc2nc(N)nc(N)c2n1 |  | 
47 | 30 | 30 | 18 | 18 | Cc1c(CN(C)c2ccccc2)cnc2nc(N)nc(N)c12 | 6.3 nM | 6.3 nM
48 | 97 | 97 |  |  | COc1cccc(N(C)Cc2ccc3nc(N)nc(N)c3n2)c1 |  | 
49 | 4400 | 4400 |  |  | COc1ccc(OC)c(NCc2ccc3nc(N)nc(N)c3n2)c1 |  | 
50 | 14100 | 14100 | 3300 | 3300 | COc1ccc(CNc2cnc3nc(N)nc(N)c3c2)c(OC)c1OC | 350 nM | 350 nM
51 | 510 | 510 |  |  | COc1ccccc1N(C)Cc1ccc2nc(N)nc(N)c2n1 |  | 
52 | 230 | 230 |  |  | Nc1nc(N)c2nc(CNc3cccc4ccccc34)ccc2n1 |  | 
53 |  |  |  | 7.21 | COc1cc(N(C)Cc2cnc3nc(N)nc(N)c3c2C)cc(OC)c1OC |  | 
54 | 68.9 | 68.9 | 80.1 | 80.1 | COc1ccccc1NCc1cnc2nc(N)nc(N)c2c1C | 7.4 nM | 7.4 nM
55 |  |  | 3500 | 3500 | COc1cc(NNCc2cnc3nc(N)nc(N)c3c2C)c(-n2cccc2)cc1OC | 600 nM | 600 nM
56 | 350 | 350 | 230 | 230 | COc1cc(NCc2cnc3nc(N)nc(N)c3c2C)c(O)cc1-n1cccc1 | 33 nM | 33 nM
57 | 497 | 497 |  |  | CCN(Cc1cnc2nc(N)nc(N)c2c1C)c1cc(OC)c(OC)c(OC)c1 |  | 
58 | 116000 | 116000 | 22700 | 22700 | COc1cc(OC)c(CN(C)c2ccc3nc(N)nc(N)c3c2)c(OC)c1 | 950 nM | 950 nM
